Reference: patent US20210395652A1, “TEXTILE TREATMENT COMPOSITIONS” (priority 2020, published 2021)
Read-outs that look alike come from different tables or passages of the source.

Columns and labels:
NCTC clone 1469 cells [1] = experiment: Cytotoxicity control of the treated fabric test; format: cell-based, mouse; conditions: Formaldehyde control
Protocol: Controls were untreated fabric pieces of the same size. After incubation with the virus for 15, 30 or 60 minutes the samples were neutralized with D/E broth, vortexed to remove the virus from the fabric and passed over a Sephadex LH-20 column to remove potential cytotoxic substances. Serial dilutions of the column eluates were used to inoculate NCTC clone 1469 cells in a 96 well plate to determine the TCID50 for the virus at each time. After 14 days the wells were examined for cytopathological effects (CPE) in the cells and scored accordingly.

NCTC clone 1469 cells [2] = conditions: mouse, pH 7.3

C=O [Formaldehyde]
dilution to which all cells were killed (NCTC clone 1469 cells [1]): killed all cells to the 10^−2 dilution | dilution to which all cells were killed (NCTC clone 1469 cells [2]): killed all cells to the 10^4 dilution
